# Experimental data from patent US10927123B2, “Modulators of the beta-3 adrenergic receptor useful for the treatment or prevention of disorders related thereto” (Arena Pharmaceuticals, Inc., priority 2016, dated 2021).
# pIC50: −log10 of the molar value.
# Molecular target: Beta-3 Adrenergic Receptor (Homo sapiens (Human), UniProt P13945)
# Test: HTRF cAMP antagonist assay (IC50 determination)
# Type: cell-based
# Details: CHO-K1 cells stably expressing recombinant receptor; antagonism of isoproterenol at EC90; cAMP readout
# Outline: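 In this functional readout, recombinant CHO-K1 cells received compound, then isoproterenol at its EC90. After 1 h at room temperature, cAMP levels were determined by HTRF using an on-plate standard curve, and IC50 values were fitted.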
# Beta-3 Adrenergic Receptor, sequence (P13945 whole entry, species assumed): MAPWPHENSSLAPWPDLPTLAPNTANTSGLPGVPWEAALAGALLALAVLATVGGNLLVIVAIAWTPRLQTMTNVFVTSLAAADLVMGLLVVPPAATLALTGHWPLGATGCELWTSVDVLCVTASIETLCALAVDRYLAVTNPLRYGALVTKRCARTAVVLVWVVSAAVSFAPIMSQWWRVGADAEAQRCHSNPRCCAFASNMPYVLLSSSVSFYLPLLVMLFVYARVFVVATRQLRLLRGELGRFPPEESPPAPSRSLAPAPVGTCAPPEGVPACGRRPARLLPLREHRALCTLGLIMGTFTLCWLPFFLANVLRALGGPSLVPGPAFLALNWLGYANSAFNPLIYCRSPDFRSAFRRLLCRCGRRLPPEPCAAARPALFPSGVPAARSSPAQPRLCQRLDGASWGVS
row,SMILES,pIC50
1,"CS(=O)(=O)c1cccc(OC[C@@H](O)CNC2COC3(CCN(S(=O)(=O)c4ccc5cc(Cl)ccc5c4)CC3)C2)c1 (stereo partly drawn) [Compound 73, (2S)-1-(8-(6-chloronaphthalen-2-ylsulfonyl)-1-oxa-8-azaspiro[4.5]decan-3-ylamino)-3-(3-(methylsulfonyl)phenoxy)propan-2-ol]",7.62
2,"CS(=O)(=O)c1cccc(OC[C@@H](O)CNC2COC3(CCN(S(=O)(=O)c4ccc5c(c4)CCO5)CC3)C2)c1 (stereo partly drawn) [Compound 74, (2S)-1-(8-(2,3-dihydrobenzofuran-5-ylsulfonyl)-1-oxa-8-azaspiro[4.5]decan-3-ylamino)-3-(3-(methylsulfonyl)phenoxy)propan-2-ol]",7.42
3,"CS(=O)(=O)c1cccc(OC[C@@H](O)CNC2COC3(CCN(S(=O)(=O)c4ccc5ncccc5c4)CC3)C2)c1 (stereo partly drawn) [Compound 75, (2S)-1-(3-(methylsulfonyl)phenoxy)-3-(8-(quinolin-6-ylsulfonyl)-1-oxa-8-azaspiro[4.5]decan-3-ylamino)propan-2-ol]",7.57
4,"CS(=O)(=O)c1cccc(OC[C@@H](O)CNC2COC3(CCN(S(=O)(=O)c4ccc5[nH]cnc5c4)CC3)C2)c1 (stereo partly drawn) [Compound 76, (2S)-1-(8-(1H-benzo[d]imidazol-5-ylsulfonyl)-1-oxa-8-azaspiro[4.5]decan-3-ylamino)-3-(3-(methylsulfonyl)phenoxy)propan-2-ol]",7.44
5,"CS(=O)(=O)c1cccc(OC[C@@H](O)CNC2COC3(CCN(S(=O)(=O)c4ccc5[nH]ncc5c4)CC3)C2)c1 (stereo partly drawn) [Compound 77, (2,5)-1-(8-(1H-indazol-5-ylsulfonyl)-1-oxa-8-azaspiro[4.5]decan-3-ylamino)-3-(3-(methylsulfonyl)phenoxy)propan-2-ol]",7.45
6,"CNCc1ccc(-c2cccc(S(=O)(=O)N3CCC4(CC3)CC(NC[C@H](O)COc3cccc(S(C)(=O)=O)c3)CO4)c2)cc1 (stereo partly drawn) [Compound 78, (2S)-1-(8-(4′-((methylamino)methyl)biphenyl-3-ylsulfonyl)-1-oxa-8-azaspiro[4.5]decan-3-ylamino)-3-(3-(methylsulfonyl)phenoxy)propan-2-ol]",7.38
7,"CCNCc1ccc(-c2cccc(S(=O)(=O)N3CCC4(CC3)CC(NC[C@H](O)COc3cccc(S(C)(=O)=O)c3)CO4)c2)cc1 (stereo partly drawn) [Compound 79, (2S)-1-(8-(4′-((ethylamino)methyl)biphenyl-3-ylsulfonyl)-1-oxa-8-azaspiro[4.5]decan-3-ylamino)-3-(3-(methylsulfonyl)phenoxy)propan-2-ol]",7.37
8,"CC(C)NCc1ccc(-c2cccc(S(=O)(=O)N3CCC4(CC3)CC(NC[C@H](O)COc3cccc(S(C)(=O)=O)c3)CO4)c2)cc1 (stereo partly drawn) [Compound 80, (2S)-1-(8-(4′-((isopropylamino)methyl)biphenyl-3-ylsulfonyl)-1-oxa-8-azaspiro[4.5]decan-3-ylamino)-3-(3-(methylsulfonyl)phenoxy)propan-2-ol]",7.42
9,"CC(C)CNCc1ccc(-c2cccc(S(=O)(=O)N3CCC4(CC3)CC(NC[C@H](O)COc3cccc(S(C)(=O)=O)c3)CO4)c2)cc1 (stereo partly drawn) [Compound 81, (2S)-1-(8-(4′-((isobutylamino)methyl)biphenyl-3-ylsulfonyl)-1-oxa-8-azaspiro[4.5]decan-3-ylamino)-3-(3-(methylsulfonyl)phenoxy)propan-2-ol]",7.56
10,"CS(=O)(=O)c1cccc(OC[C@@H](O)CNC2COC3(CCN(S(=O)(=O)c4cccc(-c5ccc(CNCC(F)(F)F)cc5)c4)CC3)C2)c1 (stereo partly drawn) [Compound 82, (2S)-1-(3-(methylsulfonyl)phenoxy)-3-(8-(4′-((2,2,2-trifluoroethylamino)methyl)biphenyl-3-ylsulfonyl)-1-oxa-8-azaspiro[4.5]decan-3-ylamino)propan-2-ol]",7.36
11,"O=S(=O)(CCO)c1cccc(OC[C@@H](O)CN[C@H]2COC3(CCN(S(=O)(=O)c4ccc5c(c4)CCCO5)CC3)C2)c1 [Compound 83, (S)-1-((R)-8-(chroman-6-ylsulfonyl)-1-oxa-8-azaspiro[4.5]decan-3-ylamino)-3-(3-(2-hydroxyethylsulfonyl)phenoxy)propan-2-ol]",7.27
12,"CN1CCOc2ccc(S(=O)(=O)N3CCC4(CC3)C[C@@H](NC[C@H](O)COc3cccc(S(=O)(=O)CCO)c3)CO4)cc21 [Compound 84, (S)-1-(3-(2-hydroxyethylsulfonyl)phenoxy)-3-((R)-8-(4-methyl-3,4-dihydro-2H-benzo[6][1,4]oxazin-6-ylsulfonyl)-1-oxa-8-azaspiro[4.5]decan-3-ylamino)propan-2-ol]",7.26
13,"CS(=O)(=O)c1cccc(OC[C@@H](O)CN[C@@H]2COC3(CCN(S(=O)(=O)c4cnc5ccccc5c4)CC3)C2)c1 [Compound 85, (S)-1-(3-(methylsulfonyl)phenoxy)-3-((S)-8-(quinolin-3-ylsulfonyl)-1-oxa-8-azaspiro[4.5]decan-3-ylamino)propan-2-ol]",7.75
14,"O=S(=O)(CF)c1cccc(OC[C@@H](O)CNC2COC3(CCN(S(=O)(=O)c4ccc5ccccc5c4)CC3)C2)c1 (stereo partly drawn) [Compound 86, (2S)-1-(3-(fluoromethylsulfonyl)phenoxy)-3-(8-(naphthalen-2-ylsulfonyl)-1-oxa-8-azaspiro[4.5]decan-3-ylamino)propan-2-ol]",8.04
15,"O=S(=O)(CCO)c1cccc(OC[C@@H](O)CN[C@H]2COC3(CCN(S(=O)(=O)c4ccc5c(c4)OCCC5)CC3)C2)c1 [Compound 87, (S)-1-((R)-8-(chroman-7-ylsulfonyl)-1-oxa-8-azaspiro[4.5]decan-3-ylamino)-3-(3-(2-hydroxyethylsulfonyl)phenoxy)propan-2-ol]",7.39
16,"NCc1ccc(-c2cncc(S(=O)(=O)N3CCC4(CC3)C[C@@H](NC[C@H](O)COc3cccc(S(=O)(=O)CCO)c3)CO4)c2)cc1 [Compound 89, (S)-1-((R)-8-(5-(4-(aminomethyl)phenyl)pyridin-3-ylsulfonyl)-1-oxa-8-azaspiro[4.5]decan-3-ylamino)-3-(3-(2-hydroxyethylsulfonyl)phenoxy)propan-2-ol]",6.96
17,"Cn1cc(-c2cncc(S(=O)(=O)N3CCC4(CC3)C[C@@H](NC[C@H](O)COc3cccc(S(=O)(=O)CCO)c3)CO4)c2)cn1 [Compound 90, (S)-1-(3-(2-hydroxyethylsulfonyl)phenoxy)-3-((R)-8-(5-(1-methyl-1H-pyrazol-4-yl)pyridin-3-ylsulfonyl)-1-oxa-8-azaspiro[4.5]decan-3-ylamino)propan-2-ol]",6.45
18,"NCc1ccc(-c2cccc(S(=O)(=O)N3CCC4(CC3)C[C@@H](NC[C@H](O)COc3cccc(S(=O)(=O)CCO)c3)CO4)c2)cc1 [Compound 91, (S)-1-((R)-8-(4′-(aminomethyl)biphenyl-3-ylsulfonyl)-1-oxa-8-azaspiro[4.5]decan-3-ylamino)-3-(3-(2-hydroxyethylsulfonyl)phenoxy)propan-2-ol]",7.43
19,"C=CS(=O)(=O)c1cccc(OC[C@@H](O)CN[C@H]2COC3(CCN(S(=O)(=O)c4cnc5ccccc5c4)CC3)C2)c1 [Compound 92, (S)-1-((R)-8-(quinolin-3-ylsulfonyl)-1-oxa-8-azaspiro[4.5]decan-3-ylamino)-3-(3-(vinylsulfonyl)phenoxy)propan-2-ol]",7.57
20,"O=S(=O)(CCO)c1cccc(OC[C@@H](O)CN[C@H]2COC3(CCN(S(=O)(=O)c4ccc5ncccc5c4)CC3)C2)c1 [Compound 93, (S)-1-(3-(2-hydroxyethylsulfonyl)phenoxy)-3-((R)-8-(quinolin-6-ylsulfonyl)-1-oxa-8-azaspiro[4.5]decan-3-ylamino)propan-2-ol]",7.12
21,"CS(=O)(=O)Cc1cccc(OC[C@H](O)CNC2COC3(CCN(S(=O)(=O)c4ccc5ccccc5c4)CC3)C2)c1 (stereo partly drawn) [Compound 94, (2R)-1-(3-(methylsulfonylmethyl)phenoxy)-3-(8-(naphthalen-2-ylsulfonyl)-1-oxa-8-azaspiro[4.5]decan-3-ylamino)propan-2-ol]",6.95
22,"CS(=O)(=O)Cc1cccc(OC[C@@H](O)CN[C@H]2COC3(CCN(S(=O)(=O)c4cnc5ccccc5c4)CC3)C2)c1 [Compound 95, (S)-1-(3-(methylsulfonylmethyl)phenoxy)-3-((R)-8-(quinolin-3-ylsulfonyl)-1-oxa-8-azaspiro[4.5]decan-3-ylamino)propan-2-ol]",7.68
23,"O=S(=O)(CCO)c1cccc(OC[C@@H](O)CN[C@H]2COC3(CCN(S(=O)(=O)c4cccc(-c5ccncc5)c4)CC3)C2)c1 [Compound 96, (S)-1-(3-(2-hydroxyethylsulfonyl)phenoxy)-3-((R)-8-(3-(pyridin-4-yl)phenylsulfonyl)-1-oxa-8-azaspiro[4.5]decan-3-ylamino)propan-2-ol]",6.39
24,"O=S(=O)(CCO)c1cccc(OC[C@@H](O)CN[C@H]2COC3(CCN(S(=O)(=O)c4cccc(-c5cccnc5)c4)CC3)C2)c1 [Compound 97, (S)-1-(3-(2-hydroxyethylsulfonyl)phenoxy)-3-((R)-8-(3-(pyridin-3-yl)phenylsulfonyl)-1-oxa-8-azaspiro[4.5]decan-3-ylamino)propan-2-ol]",6.67
25,"O=S(=O)(CCO)c1cccc(OC[C@@H](O)CN[C@H]2COC3(CCN(S(=O)(=O)c4ccc5cccnc5c4)CC3)C2)c1 [Compound 98, (S)-1-(3-(2-hydroxyethylsulfonyl)phenoxy)-3-((R)-8-(quinolin-7-ylsulfonyl)-1-oxa-8-azaspiro[4.5]decan-3-ylamino)propan-2-ol]",7.05
26,"O=S(=O)(CCO)c1cccc(OC[C@@H](O)CN[C@H]2COC3(CCN(S(=O)(=O)c4ccc(-c5cccnc5)cc4)CC3)C2)c1 [Compound 99, (S)-1-(3-(2-hydroxyethylsulfonyl)phenoxy)-3-((R)-8-(4-(pyridin-3-yl)phenylsulfonyl)-1-oxa-8-azaspiro[4.5]decan-3-ylamino)propan-2-ol]",6.54
27,"O=S(=O)(CCO)c1cccc(OC[C@@H](O)CN[C@H]2COC3(CCN(S(=O)(=O)c4cccc(-c5ccccn5)c4)CC3)C2)c1 [Compound 100, (S)-1-(3-(2-hydroxyethylsulfonyl)phenoxy)-3-((R)-8-(3-(pyridin-2-yl)phenylsulfonyl)-1-oxa-8-azaspiro[4.5]decan-3-ylamino)propan-2-ol]",7.04
